Assay results: publication PMC12095868, “The Fsr transporter of Sinorhizobium meliloti contributes to antimicrobial resistance and symbiosis with alfalfa” (Microbiology, 2025)

Target: T1, Fsr (Sinorhizobium meliloti, UniProt Q92RK8)
T1 construct: native full-length protein in S. meliloti 1021 cells, compared with fsr::loxSp null mutant; 398 residues; MFS membrane transporter
Assay: fluorometric accumulation and efflux assay, wild-type versus fsr null mutant cells
Assay type: cell-based
Details: whole cells, 10 ug/ml EtBr, 0.4% glucose as energy source; CCCP 25 ug/ml as decoupler in parallel; proton-dependent efflux

T1 sequence (Q92RK8 entry or part of it): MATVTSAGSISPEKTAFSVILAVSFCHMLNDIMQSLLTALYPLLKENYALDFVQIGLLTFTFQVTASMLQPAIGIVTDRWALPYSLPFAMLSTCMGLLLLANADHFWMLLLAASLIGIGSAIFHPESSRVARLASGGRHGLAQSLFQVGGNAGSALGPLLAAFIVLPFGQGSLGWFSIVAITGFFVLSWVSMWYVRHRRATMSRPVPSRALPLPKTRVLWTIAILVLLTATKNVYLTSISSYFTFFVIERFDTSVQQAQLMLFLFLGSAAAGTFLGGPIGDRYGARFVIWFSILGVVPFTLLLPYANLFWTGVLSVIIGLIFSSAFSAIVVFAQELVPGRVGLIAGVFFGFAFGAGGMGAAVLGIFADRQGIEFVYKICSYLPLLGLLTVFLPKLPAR

CC[n+]1c(-c2ccccc2)c2cc(N)ccc2c2ccc(N)cc21 [EtBr, ethidium bromide]
fluorometric accumulation and efflux assay, wild-type versus fsr null mutant cel: The rate and extent of EtBr efflux were higher in the wild type
